Experimental data taken from patent US20250282799A1, “SUBSTITUTED PYRIDO[4,3-d]PYRIMIDINES AS KRAS MODULATORS” (Alterome Therapeutics, Inc., priority 2023, published 2025).
pIC50: −log10 of the molar value.

Tested on: KRAS G12V dependent lung adenocarcinoma cell line, NCI-H441
Test: Cellular pERK (Thr202/Tyr204) FRET/HTRF assay
Format: cell-based
Conditions: Homo sapiens, NCI-H441, cellular pERK (Thr202/Tyr204) HTRF, NCI-H441 cells
Outline: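 IC50 reflects inhibition of ERK1/2 Thr202/Tyr204 phosphorylation, quantified by HTRF after a 1 hr treatment of KRAS G12V-driven NCI-H441 cells. DMSO served as negative control.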

SMILES	pIC50
C=C1CN2CCC3(CC3)[C@@]2(COc2nc(N3CCCC[C@H]4[C@H](F)[C@H]43)c3cnc(-c4cc(N)c(F)c(C)c4C(F)(F)F)c(F)c3n2)C1 [Example 379, 2-fluoro-5-(8-fluoro-4-((1S,7R,8S)-8-fluoro-2-azabicyclo[5.1.0]octan-2-yl)-2-(((R)-6′-methylenetetrahydrospiro[cyclopropane-1,1′-pyrrolizin]-7a′(5′H)-yl)methoxy)pyrido[4,3-d]pyrimidin-7-yl)-3-methyl-4-(trifluoromethyl)aniline]	6.30 to 7.30
Cc1c(F)c(N)cc(-c2ncc3c(N4CCCC[C@H]5[C@H](F)[C@H]54)nc(OC[C@]45C/C(=C\F)CN4CCC54CC4)nc3c2F)c1C(F)(F)F [Example 380, 2-fluoro-5-(8-fluoro-4-((1S,7R,8S)-8-fluoro-2-azabicyclo[5.1.0]octan-2-yl)-2-(((R,E)-6′-(fluoromethylene)tetrahydrospiro[cyclopropane-1,1′-pyrrolizin]-7a′(5′H)-yl)methoxy)pyrido[4,3-d]pyrimidin-7-yl)-3-methyl-4-(trifluoromethyl)aniline]	6.30 to 7.30
Cc1c(F)c(N)cc(-c2ncc3c(N4CCCC[C@H]5[C@H](F)[C@H]54)nc(OC[C@]45C/C(=C/F)CN4CCC54CC4)nc3c2F)c1C(F)(F)F [Example 381, 2-fluoro-5-(8-fluoro-4-((1S,7R,8S)-8-fluoro-2-azabicyclo[5.1.0]octan-2-yl)-2-(((R,Z)-6′-(fluoromethylene)tetrahydrospiro[cyclopropane-1,1′-pyrrolizin]-7a′(5′H)-yl)methoxy)pyrido[4,3-d]pyrimidin-7-yl)-3-methyl-4-(trifluoromethyl)aniline]	6.30 to 7.30
[2H]C([2H])(F)Oc1c(F)ccc2cccc(-c3ncc4c(N5CCCC[C@H]6[C@H](F)[C@H]65)nc(OC[C@]56C/C(=C\F)CN5CCC65CC5)nc4c3F)c12 [Example 382, (R,E)-7a′-(((8-fluoro-7-(7-fluoro-8-(fluoromethoxy-d2)naphthalen-1-yl)-4-((1S,7R,8S)-8-fluoro-2-azabicyclo[5.1.0]octan-2-yl)pyrido[4,3-d]pyrimidin-2-yl)oxy)methyl)-6′-(fluoromethylene)hexahydrospiro [cyclopropane-1,1′-pyrrolizine]]	> 7.30
[2H]C([2H])(F)Oc1c(F)ccc2cc(N)cc(-c3ncc4c(N5CCCC[C@H]6[C@H](F)[C@H]65)nc(OC[C@]56C/C(=C\F)CN5CCC65CC5)nc4c3F)c12 [Example 383, 6-fluoro-4-(8-fluoro-4-((1S,7R,8S)-8-fluoro-2-azabicyclo[5.1.0]octan-2-yl)-2-(((R,E)-6′-(fluoromethylene)tetrahydrospiro[cyclopropane-1,1′-pyrrolizin]-7a′(5′H)-yl)methoxy)pyrido[4,3-d]pyrimidin-7-yl)-5-(fluoromethoxy-d2)naphthalen-2-amine]	> 7.30
[2H]C([2H])(F)Oc1c(F)ccc2cccc(-c3ncc4c(N5CCOC[C@H]6[C@H](F)[C@H]65)nc(OC[C@]56CC(=C)CN5CCC65CC5)nc4c3F)c12 [Example 384, (1S,7S,8S)-8-fluoro-2-(8-fluoro-7-(7-fluoro-8-(fluoromethoxy-d2)naphthalen-1-yl)-2-(((R)-6′-methylenetetrahydrospiro[cyclopropane-1,1′-pyrrolizin]-7a′(5′H)-yl)methoxy)pyrido[4,3-d]pyrimidin-4-yl)-5-oxa-2-azabicyclo[5.1.0]octane]	> 7.30
[2H]C([2H])(F)Oc1c(F)ccc2cccc(-c3ncc4c(N5CCOC[C@H]6[C@H](F)[C@H]65)nc(OC[C@]56C/C(=C\F)CN5CCC65CC5)nc4c3F)c12 [Example 385, (1S,7S,8S)-8-fluoro-2-(8-fluoro-7-(7-fluoro-8-(fluoromethoxy-d2)naphthalen-1-yl)-2-(((R,E)-6′-(fluoromethylene)tetrahydrospiro[cyclopropane-1,1′-pyrrolizin]-7a′(5′H)-yl)methoxy)pyrido[4,3-d]pyrimidin-4-yl)-5-oxa-2-azabicyclo[5.1.0]octane]	> 7.30
[2H]C([2H])(F)Oc1c(F)ccc2cccc(-c3ncc4c(N5CCOC[C@H]6[C@H](F)[C@H]65)nc(OC[C@]56C/C(=C/F)CN5CCC65CC5)nc4c3F)c12 [Example 386, (1S,7S,8S)-8-fluoro-2-(8-fluoro-7-(7-fluoro-8-(fluoromethoxy-d2)naphthalen-1-yl)-2-(((R,Z)-6′-(fluoromethylene)tetrahydrospiro[cyclopropane-1,1′-pyrrolizin]-7a′(5′H)-yl)methoxy)pyrido[4,3-d]pyrimidin-4-yl)-5-oxa-2-azabicyclo[5.1.0]octane]	> 7.30
[2H]C([2H])(F)Oc1c(F)ccc2cc(N)cc(-c3ncc4c(N5CCOC[C@H]6[C@H](F)[C@H]65)nc(OC[C@]56CC(=C)CN5CCC65CC5)nc4c3F)c12 [Example 387, 6-fluoro-4-(8-fluoro-4-((1S,7S,8S)-8-fluoro-5-oxa-2-azabicyclo[5.1.0]octan-2-yl)-2-(((R)-6′-methylenetetrahydrospiro[cyclopropane-1,1′-pyrrolizin]-7a′(5′H)-yl)methoxy)pyrido[4,3-d]pyrimidin-7-yl)-5-(fluoromethoxy-d2)naphthalen-2-amine]	> 7.30
[2H]C([2H])(F)Oc1c(F)ccc2cc(N)cc(-c3ncc4c(N5CCOC[C@H]6[C@H](F)[C@H]65)nc(OC[C@]56C/C(=C\F)CN5CCC65CC5)nc4c3F)c12 [Example 388, 6-fluoro-4-(8-fluoro-4-((1S,7S,8S)-8-fluoro-5-oxa-2-azabicyclo[5.1.0]octan-2-yl)-2-(((R,E)-6′-(fluoromethylene)tetrahydrospiro[cyclopropane-1,1′-pyrrolizin]-7a′(5′H)-yl)methoxy)pyrido[4,3-d]pyrimidin-7-yl)-5-(fluoromethoxy-d2)naphthalen-2-amine]	> 7.30
[2H]C([2H])(F)Oc1c(F)ccc2cc(N)cc(-c3ncc4c(N5CCOC[C@H]6[C@H](F)[C@H]65)nc(OC[C@]56C/C(=C/F)CN5CCC65CC5)nc4c3F)c12 [Example 389, 6-fluoro-4-(8-fluoro-4-((1S,7S,8S)-8-fluoro-5-oxa-2-azabicyclo[5.1.0]octan-2-yl)-2-(((R,Z)-6′-(fluoromethylene)tetrahydrospiro[cyclopropane-1,1′-pyrrolizin]-7a′(5′H)-yl)methoxy)pyrido[4,3-d]pyrimidin-7-yl)-5-(fluoromethoxy-d2)naphthalen-2-amine]	> 7.30
C=C1CN2CCC[C@@]2(COc2nc(N3CCCC[C@H]4[C@H](F)[C@H]43)c3cnc(-c4cc(N)c(F)c(C)c4C(F)(F)F)c(F)c3n2)C1 [Example 392, 2-fluoro-5-(8-fluoro-4-((1S,7R,8S)-8-fluoro-2-azabicyclo[5.1.0]octan-2-yl)-2-(((S)-2-methylenetetrahydro-1H-pyrrolizin-7a(5H)-yl)methoxy)pyrido[4,3-d]pyrimidin-7-yl)-3-methyl-4-(trifluoromethyl)aniline]	6.30 to 7.30
C=C1CN2CCC[C@@]2(COc2nc(N3CCCC[C@@H]4[C@@H](F)[C@@H]43)c3cnc(-c4cc(N)c(F)c(C)c4C(F)(F)F)c(F)c3n2)C1 [Example 393, 2-fluoro-5-(8-fluoro-4-((1R,7S,8R)-8-fluoro-2-azabicyclo[5.1.0]octan-2-yl)-2-(((S)-2-methylenetetrahydro-1H-pyrrolizin-7a(5H)-yl)methoxy)pyrido[4,3-d]pyrimidin-7-yl)-3-methyl-4-(trifluoromethyl)aniline]	5.00 to 6.30
Cc1c(F)c(N)cc(-c2ncc3c(N4CCCC[C@H]5[C@H](F)[C@H]54)nc(OC[C@@]45CCCN4CC(=C(F)F)C5)nc3c2F)c1C(F)(F)F [Example 394, 5-(2-(((S)-2-(difluoromethylene)tetrahydro-1H-pyrrolizin-7a(5H)-yl)methoxy)-8-fluoro-4-((1S,7R,8S)-8-fluoro-2-azabicyclo[5.1.0]octan-2-yl)pyrido[4,3-d]pyrimidin-7-yl)-2-fluoro-3-methyl-4-(trifluoromethyl)aniline]	5.00 to 6.30
Cc1c(F)c(N)cc(-c2ncc3c(N4CCCC[C@@H]5[C@@H](F)[C@@H]54)nc(OC[C@@]45CCCN4CC(=C(F)F)C5)nc3c2F)c1C(F)(F)F [Example 395, 5-(2-(((S)-2-(difluoromethylene)tetrahydro-1H-pyrrolizin-7a(5H)-yl)methoxy)-8-fluoro-4-((1R,7S,8R)-8-fluoro-2-azabicyclo[5.1.0]octan-2-yl)pyrido[4,3-d]pyrimidin-7-yl)-2-fluoro-3-methyl-4-(trifluoromethyl)aniline]	5.00 to 6.30
Cc1c(F)c(N)cc(-c2ncc3c(N4CCCC[C@H]5[C@H](F)[C@H]54)nc(OC[C@@]45CCCN4C/C(=C/F)C5)nc3c2F)c1C(F)(F)F [Example 396, 2-fluoro-5-(8-fluoro-4-((1S,7R,8S)-8-fluoro-2-azabicyclo[5.1.0]octan-2-yl)-2-(((S,E)-2-(fluoromethylene)tetrahydro-1H-pyrrolizin-7a(5H)-yl)methoxy)pyrido[4,3-d]pyrimidin-7-yl)-3-methyl-4-(trifluoromethyl)aniline]	5.00 to 6.30
Cc1c(F)c(N)cc(-c2ncc3c(N4CCCC[C@@H]5[C@@H](F)[C@@H]54)nc(OC[C@@]45CCCN4C/C(=C/F)C5)nc3c2F)c1C(F)(F)F [Example 397, 2-fluoro-5-(8-fluoro-4-((1R,7S,8R)-8-fluoro-2-azabicyclo[5.1.0]octan-2-yl)-2-(((S,E)-2-(fluoromethylene)tetrahydro-1H-pyrrolizin-7a(5H)-yl)methoxy)pyrido[4,3-d]pyrimidin-7-yl)-3-methyl-4-(trifluoromethyl)aniline]	5.00 to 6.30
Cc1c(F)c(N)cc(-c2ncc3c(N4CCCC[C@H]5[C@H](F)[C@H]54)nc(OC[C@@]45CCCN4C/C(=C\F)C5)nc3c2F)c1C(F)(F)F [Example 398, 2-fluoro-5-(8-fluoro-4-((1S,7R,8S)-8-fluoro-2-azabicyclo[5.1.0]octan-2-yl)-2-(((S,Z)-2-(fluoromethylene)tetrahydro-1H-pyrrolizin-7a(5H)-yl)methoxy)pyrido[4,3-d]pyrimidin-7-yl)-3-methyl-4-(trifluoromethyl)aniline]	6.30 to 7.30
